These results are taken from patent publication US9879015B2, “Pyrazino[1,2-a]indole compounds, their preparation and use in medicaments” (LABORATORIOS DEL DR. ESTEVE S.A., priority 2013, dated 2018).

A word on the Ki: it is the equilibrium dissociation constant of an inhibitor or competing ligand from its target. A high value points to lower affinity.

Counter-ions that a name gives are not always drawn.

In the experiment the target is T1, human sigma 1 receptor (Homo sapiens, UniProt Q99720).
T1 construct: expressed in transfected cells; host or cells: HEK-293
T1 sequence (Q99720 whole entry): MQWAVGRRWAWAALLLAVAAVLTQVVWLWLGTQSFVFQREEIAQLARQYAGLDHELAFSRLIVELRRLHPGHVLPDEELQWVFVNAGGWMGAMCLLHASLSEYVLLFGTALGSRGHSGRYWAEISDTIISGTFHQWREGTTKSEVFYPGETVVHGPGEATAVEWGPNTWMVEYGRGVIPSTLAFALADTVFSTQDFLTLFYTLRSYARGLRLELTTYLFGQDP
Description: Human sigma 1 receptor radioligand assay ([3H](+)-pentazocine, transfected HEK-293 membranes). It is filed as binding. The following applies: 5 nM [3H](+)-pentazocine, 37° C., 120 minutes. How it is done:
Biological Activity Pharmacological Study Human Sigma 1 Receptor Radioligand Assay
To investigate binding properties of sigma 1 receptor ligands to human sigma 1 receptor, transfected HEK-293 membranes and [^3H](+)-pentazocine (Perkin Elmer, NET-1056), as the radioligand, were used. The assay was carried out with 7 μg of membrane suspension, 5 nM of [^3H](+)-pentazocine in either absence or presence of either buffer or 10 μM Haloperidol for total and non-specific binding, respectively. Binding buffer contained Tris-HCl 50 mM at pH 8. Plates were incubated at 37° C. for 120 minutes. After the incubation period, the reaction mix was then transferred to MultiScreen HTS, FC plates (Millipore), filtered and plates were washed 3 times with ice-cold 10 mM TrisHCL (pH7.4). Filters were dried and counted at approximately 40% efficiency in a MicroBeta scintillation counter (Perkin-Elmer) using EcoScint liquid scintillation cocktail.
On to `c1ccc2c(c1)cc1n2CCN(CCCN2CCCCCC2)C1` [Example 13, 2-(3-(azepan-1-yl)propyl)-1,2,3,4-tetrahydropyrazino[1,2-a]indole], for which the Ki was found to be 19.9 nM. Next, `CC(CN1CCn2c(cc3cc(F)ccc32)C1)N1CCN(C)CC1` (stereo not shown) [Example 18, 8-fluoro-2-(2-(4-methylpiperazin-1-yl)propyl)-1,2,3,4-tetrahydropyrazino[1,2-a]indole]: 14.1 nM. Turning to `CC(CN1CCn2c(cc3ccccc32)C1)N1CCC(Cc2ccccc2)CC1` (stereo not shown) [Example 6, 2-(2-(4-benzylpiperidin-1-yl)propyl)-1,2,3,4-tetrahydropyrazino[1,2-a]indole maleate], the affinity, expressed as Ki, was 175 nM. Next, `CN1CCN(CCCCN2CCn3c(cc4ccccc43)C2)CC1` [Example 16, 2-(4-(4-methylpiperazin-1-yl)butyl)-1,2,3,4-tetrahydropyrazino[1,2-a]indole]: 35.8 nM; `c1ccc(CC2CCN(CCN3CCn4c(cc5ccccc54)C3)CC2)cc1` [Example 4, 2-(2-(4-benzylpiperidin-1-yl)ethyl)-1,2,3,4-tetrahydropyrazino[1,2-a]indole hydrochloride]: 14.6 nM.

Turning to `Cc1c2n(c3ccccc13)CCN(CCN1CCC(Cc3ccccc3)CC1)C2` [Example 11, 2-(2-(4-benzylpiperidin-1-yl)ethyl)-10-methyl-1,2,3,4-tetrahydropyrazino[1,2-a]indole], the Ki came out at 21.4 nM. This Ki and that of the compound before are within 1.5-fold of each other. Then `Fc1ccc2c(c1)cc1n2CCN(CCCCN2CCCCC2)C1` [Example 12, 8-fluoro-2-(4-(piperidin-1-yl)butyl)-1,2,3,4-tetrahydropyrazino[1,2-a]indole], with 7.6 nM; and `CN1CCN(CCN2CCn3c(cc4ccccc43)C2)CC1` [Example 5, 2-(2-(4-methylpiperazin-1-yl)ethyl)-1,2,3,4-tetrahydropyrazino[1,2-a]indole hydrochloride], with 153 nM; and `CC(CN1CCn2c(cc3ccccc32)C1)N1CCN(C2CCCCC2)CC1` (stereo not shown) [Example 17, 2-(2-(4-cyclohexylpiperazin-1-yl)propyl)-1,2,3,4-tetrahydropyrazino[1,2-a]indole], with 9.2 nM. Next, `Cc1ccc2c(c1)cc1n2CCN(CC(C)N2CCCCCC2)C1` (stereo not shown) [Example 10, 2-(2-(azepan-1-yl)propyl)-8-methyl-1,2,3,4-tetrahydropyrazino[1,2-a]indole]: 7.4 nM; `CN(C)CCCCN1CCn2c(cc3ccccc32)C1` [Example 7, 4-(3,4-dihydropyrazino[1,2-a]indol-2(1H)-yl)-N,N-dimethylbutan-1-amine]: 89.1 nM. Then `Fc1ccc2c(c1)cc1n2CCN(CCN2CCCCCC2)C1` [Example 9, 2-(2-(azepan-1-yl)ethyl)-8-fluoro-1,2,3,4-tetrahydropyrazino[1,2-a]indole], with 1.9 nM; and `c1ccc2c(c1)cc1n2CCN(CCCCN2CCCCC2)C1` [Example 14, 2-(4-(piperidin-1-yl)butyl)-1,2,3,4-tetrahydropyrazino[1,2-a]indole], with 13.5 nM; and `CN(C)CCCCN1CCN2c3ccccc3CC2C1` (stereo not shown) [Example 19, N,N-dimethyl-4-(3,4,10,10a-tetrahydropyrazino[1,2-a]indol-2(1H)-yl)butan-1-amine], with 153 nM. As to `c1ccc2c(c1)cc1n2CCN(CCN2CCCCCC2)C1` [Example 3, 2-(2-(azepan-1-yl)ethyl)-1,2,3,4-tetrahydropyrazino[1,2-a]indole hydrochloride], the Ki is 3.9 nM.

`Fc1ccc2c(c1)cc1n2CCN(CCCCN2CCCCCC2)C1` [Example 15, 2-(4-(azepan-1-yl)butyl)-8-fluoro-1,2,3,4-tetrahydropyrazino[1,2-a]indole] returned a Ki of 8.6 nM. Then `CC(CN1CCn2c(cc3ccccc32)C1)N1CCN(C)CC1` (stereo not shown) [Example 1, 2-(2-(4-methylpiperazin-1-yl)propyl)-1,2,3,4-tetrahydropyrazino[1,2-a]indole], with 29.8 nM; and `Cc1c2n(c3ccccc13)CCN(CCN1CCCCCC1)C2` [Example 8, 2-(2-(azepan-1-yl)ethyl)-10-methyl-1,2,3,4-tetrahydropyrazino[1,2-a]indole], with 12.5 nM; and `c1ccc2c(c1)CC1CN(CCN3CCCCCC3)CCN21` (stereo not shown) [Example 2, 2-(2-(azepan-1-yl)ethyl)-1,2,3,4,10,10a-hexahydropyrazino[1,2-a]indole], with 7.3 nM.
